Measurements taken from patent US5679640A, “Immunosuppressant peptides” (priority 1995, dated 1997).
Non-standard residues stand in square brackets, D forms with d. Residues, ends and D or L forms follow the SMILES beside them. Hyp = O=C(O)[C@@H]1C[C@@H](O)CN1; Cha = N[C@@H](CC1CCCCC1)C(=O)O

Legend:
[1] = molecular target: T1, HLA-DR1 (Homo sapiens, UniProt P01903+P01911, A100R/D57E/F55L/F60I/F76Y/I96L/L162R/M171V/P40L/Q125E/R42F/V115G/Y59C); assay: DR-peptide binding assay, DR1; details: Table 3, binding affinity relative to HA 307-319 = 1
T1 construct: EBV-transformed homozygous cell lines were used as a source of DR molecules; endogenous in cells; host or cells: LG-2 (EBV-transformed human B cell line, DR1 homozygous); lysate purified on a monoclonal antibody LB3.1 column

[2] = molecular target: T2, DR4w4 (Homo sapiens, UniProt P01903+P01911, A100K/A169T/F76Y/I96L/K127E/L162R/M171V/N62H/P40V/Q125Y/R42H/S133A/S149N/S66Y/V115G/V209L/W38E); assay: DR-peptide binding assay, DR4w4; details: Table 3, binding affinity relative to HA 307-319 = 1
T2 construct: EBV-transformed homozygous cell lines were used as a source of DR molecules; endogenous in cells; host or cells: Preiss or Beh (EBV-transformed human B cell lines, DR4 Dw4 homozygous); lysate purified on a monoclonal antibody LB3.1 column

[3] = tested on: DR4w14; assay: DR-peptide binding assay, DR4w14; set-up: species or system human; details: Table 3, […]
Experimental: DR-peptide binding assay. Purified DR molecules (10-1,000 nM) were incubated with 10 nM ^125 I-radiolabeled peptide for 48 hours in the presence of added protease inhibitors. […] The final concentrations of protease inhibitors were: 1 mM PMSF, 1.3 mM 1,10-phenanthroline, 73 μM pepstatin A, 8 mM EDTA, 6 mM N-ethyl maleimide, and 200 μM Nα-p-tosyl-L-lysine chloromethyl ketone (TLCK). The final detergent concentration in the incubation mixture was 0.05% NP-40. Several of the peptides screened were hydrophobic and required DMSO to maintain solubility and reduce peptide adsorption to surfaces. In these instances peptide stock solutions were prepared in neat DMSO, and the final DMSO concentration in the incubation mixture was adjusted to 5%. […] The DR-peptide complexes were separated from free peptide by gel filtration on a Sephadex G50 (Pharmacia Fine Chemicals, Piscataway, N.J.) column (23×1.3 cm), as previously described. […] The columns were eluted using PBS (0.5% NP-40, 0.1% NAN3) collected in 1 ml fractions, which were then assayed for radioactivity. The fraction of peptide bound to DR (α) relative to the total amount of offered peptide was determined as the ratio of peptide in the void volume to the total peptide recovered. The α was corrected by subtracting the negative control (^125 I-peptide incubated for two days at room temperature in the presence of protease inhibitors and 120 μg/ml of unlabeled peptide, but in the absence of any DR).
To obtain a figure that positively correlated with the binding affinity, the data were expressed as relative binding values.

CC(=O)N[C@H](Cc1ccc(O)cc1)C(=O)N[C@@H](C)C(=O)N[C@@H](C)C(=O)N[C@@H](CC1CCCCC1)C(=O)N[C@@H](C)C(=O)N[C@@H](C)C(=O)N[C@@H](C)C(=O)N[C@@H](C)C(=O)N[C@H](C(=O)N[C@@H](CC(C)C)C(=O)N[C@@H](CCCCN)C(=O)N[C@@H](C)C(=O)N[C@@H](C)C(=O)N[C@H](C)C(N)=O)[C@@H](C)O [Ac-yAAXAAAATLKAAa-NH2]
++ (affinity greater than 1.0): MHC Binding Assay DR1 [1] | MHC Binding Assay DR4w4 [2] | MHC Binding Assay DR4w14 [3]

CC(C)C[C@H](NC(=O)[C@@H](NC(=O)[C@H](CCCCN)NC(=O)[C@H](C)NC(=O)[C@H](C)NC(=O)[C@H](C)NC(=O)[C@H](Cc1ccccc1)NC(=O)[C@H](C)NC(=O)[C@H](C)NC(=O)[C@H](N)Cc1ccc(O)cc1)[C@@H](C)O)C(=O)N[C@@H](C)C(=O)N[C@@H](C)C(=O)N[C@@H](C)C(=O)N[C@H](C)C(N)=O (H-[dY]AAFAAAKTLAAA[dA]-NH2)
++ (affinity greater than 1.0): MHC Binding Assay DR1 [1] | MHC Binding Assay DR4w4 [2] | MHC Binding Assay DR4w14 [3]

C[C@H](NC(=O)[C@H](C)NC(=O)[C@H](CCCCN)NC(=O)[C@H](C)NC(=O)[C@H](Cc1ccccc1)NC(=O)[C@H](C)NC(=O)[C@@H](C)N)C(=O)N[C@H](C(=O)N[C@@H](C)C(=O)N[C@@H](CCCCN)C(=O)N[C@@H](C)C(=O)N[C@@H](C)C(=O)N[C@H](C)C(N)=O)[C@@H](C)O (H-[dA]AFAKAATAKAA[dA]-NH2)
++ (affinity greater than 1.0): MHC Binding Assay DR1 [1] | MHC Binding Assay DR4w4 [2] | MHC Binding Assay DR4w14 [3]

C[C@H](NC(=O)[C@H](C)NC(=O)[C@H](C)NC(=O)[C@H](Cc1ccccc1)NC(=O)[C@H](C)NC(=O)[C@@H](C)N)C(=O)N[C@@H](C)C(=O)N[C@H](C(=O)N[C@@H](C)C(=O)N[C@@H](CCCCN)C(=O)N[C@@H](C)C(=O)N[C@@H](C)C(=O)N[C@H](C)C(=O)O)[C@@H](C)O (H-[dA]AFAAAATAKAA[dA]-OH)
++ (affinity greater than 1.0): MHC Binding Assay DR1 [1] | MHC Binding Assay DR4w4 [2] | MHC Binding Assay DR4w14 [3]

C[C@H](NC(=O)[C@H](C)NC(=O)[C@H](C)NC(=O)[C@@H](NC(=O)[C@H](CCCCN)NC(=O)[C@H](C)NC(=O)[C@H](C)NC(=O)[C@H](C)NC(=O)[C@H](CC1CCCCC1)NC(=O)[C@H](C)NC(=O)[C@@H](C)N)[C@@H](C)O)C(=O)N[C@@H](C)C(=O)N[C@H](C)C(N)=O [aAXAAAKTAAAAa-NH2]
++ (affinity greater than 1.0): MHC Binding Assay DR1 [1] | MHC Binding Assay DR4w4 [2] | MHC Binding Assay DR4w14 [3]

C[C@H](NC(=O)[C@H](N)Cc1ccc(O)cc1)C(=O)N[C@@H](C)C(=O)N[C@@H](CC1CCCCC1)C(=O)N[C@@H](C)C(=O)N[C@@H](C)C(=O)N[C@@H](C)C(=O)N[C@@H](C)C(=O)N1C[C@H](O)C[C@H]1C(=O)N[C@@H](CCCCN)C(=O)N[C@@H](C)C(=O)N[C@@H](C)C(=O)N[C@@H](C)C(=O)N[C@H](C)C(N)=O [yAAXAAAABKAAAa-NH2] (H-[dY]AA[Cha]AAAA[Hyp]KAAA[dA]-NH2)
++ (affinity greater than 1.0): MHC Binding Assay DR1 [1] | MHC Binding Assay DR4w4 [2] | MHC Binding Assay DR4w14 [3]
